Counter-ions that a name gives are not always drawn. Like-named read-outs stand apart in the source and are kept apart here.
What was measured:
[1] = system: hydrogen peroxide induced PAR formation in HeLa cells; assay: Cellular PAR assay (inhibition of hydrogen peroxide induced PAR formation); format: cell-based; settings: Homo sapiens, 0.1 mM hydrogen peroxide 15 min
Protocol: Compounds potencies were evaluated by measuring the inhibition of poly (ADP-ribose) (PAR) chains formation as a marker for PARP-1 inhibition.
Cellular activity of PARP-1 inhibitors was assessed by measuring the inhibition of the hydrogen peroxide induced PAR formation in HeLa cells (ECACC). Cellular PAR levels were measured by immunocytochemistry and quantified using an ArrayScan vTi instrument (Cellomics Thermo Scientific).
Studies were performed as follows: 6000 cells/well were seeded in 96 well plates (Perkin Elmer) in MEM/10% FCS and incubated for 24 hours at 37° C., 5% carbon dioxide. Test compounds were then added at the required concentration for 30′. […] Concentration curves were prepared in MEM/10% FCS from compound stocks in DMSO and final DMSO concentration was 0.002% (v/v). Duplicate wells for each concentration point were prepared with a typical highest compound concentration of 20 μM and serial dilution 1:3. […] Non-specific binding sites were blocked by incubating wells for 30 min in PBS containing 5% (w/v) FBS 0.05% tween20. […] After washing further 3 times in PBS, cellular PAR immunoreactivity was assessed using the ArrayScan vTi instrument, with a Zeiss 10×0.5 N.A. objective, and applying the Cytotoxicity.V3 algorithm (Cellomics/Thermo Fisher) with a XF100 filter. At least 10 fields, corresponding to at least 900 cells, were read for each well.
The following formula is used: IC50=Bottom+(Top−Bottom)/(1+10^((Log EC50−X))); X is the logarithm of concentration. IC50 is the response; IC50 starts at Bottom and goes to Top with a sigmoid shape.

PARP-2 FL = PARP-2 FL (Homo sapiens, UniProt Q9UGN5); assay: Fluorescence polarization probe displacement assay; format: binding; settings: for DC50: compound P1 as the probe
Protocol: (§1) Affinity of the tested compounds and their selectivity with respect to the different PARP isoforms of interest was quantified in a displacement assay.
(§2) In all of the experiments, the polarization signal was measured using a Saphire2 plate reader (Tecan). Data analysis was performed using Dynafit software. In particular, titration data were fitted to the following equilibria: Enzyme+probe <==> Complex Enzyme-probe, while displacement data were fitted to the following equilibria: Enzyme+probe <==> Complex Enzyme-probe, Enzyme+Compound <==> Complex Enzyme-Compound, whereby binding of probe and compound on the enzyme are mutually exclusive (pure competitive mechanism). Displacement data were also fitted using Excel spreadsheet (Microsoft Inc. Seattle, USA) to a four parameter logistic model (4PL), or Hill-Slope model to calculate DC50s where the DC50 value represents the compound concentration at which the polarization signal is diminished by 50% compared to untreated controls.
(§3) In agreement, affinity binding constants (KD) were determined by fitting with a pure competitive mechanism. KD values are the average of three independent experiments.

PARP-3 FL = target: T1, PARP-3 FL (Homo sapiens, UniProt Q9Y6F1); assay: Fluorescence polarization probe displacement assay; format: binding; settings: compound P1 as the probe
T1 sequence (Q9Y6F1 1-533): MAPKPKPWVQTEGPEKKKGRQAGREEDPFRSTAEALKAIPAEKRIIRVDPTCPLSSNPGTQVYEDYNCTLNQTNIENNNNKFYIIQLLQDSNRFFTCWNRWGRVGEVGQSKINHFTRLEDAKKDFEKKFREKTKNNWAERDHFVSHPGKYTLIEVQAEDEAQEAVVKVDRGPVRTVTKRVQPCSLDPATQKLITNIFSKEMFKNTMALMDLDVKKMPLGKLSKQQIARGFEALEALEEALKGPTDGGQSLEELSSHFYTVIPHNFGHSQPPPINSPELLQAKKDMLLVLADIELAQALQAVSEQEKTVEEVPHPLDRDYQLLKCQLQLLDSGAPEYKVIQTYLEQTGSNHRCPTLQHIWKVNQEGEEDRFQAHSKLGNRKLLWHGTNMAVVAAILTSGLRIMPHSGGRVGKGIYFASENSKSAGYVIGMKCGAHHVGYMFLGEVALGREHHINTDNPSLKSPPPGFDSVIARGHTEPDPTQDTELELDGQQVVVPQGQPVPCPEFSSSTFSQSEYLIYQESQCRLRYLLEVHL
Protocol: as §1, §2, §3

PARP-1 FL = PARP-1 FL (Homo sapiens, UniProt P09874); assay: Fluorescence polarization probe displacement assay; format: binding; settings: for DC50: half maximal displacement concentration
Protocol: as §1, §2, §3

[2] = system: Capan-1 human pancreatic cancer tumors; assay: In vivo efficacy as single agent, Capan-1 BRCA-2 mutated mouse model; settings: oral; for Toxicity: body weight reduction and survival
From the text: Each group included seven animals. The treatment started one day after randomization.

[3] = Pharmacokinetics and oral bioavailability in the mouse; format: in vivo; settings: for F on AUC: 10 mg/kg, ratio of oral to IV dose-normalized plasma AUC; for clearance / Vd / AUC / half-life: male, Balb Nu/Nu, plasma, mean value; for clearance / Vd: 10 mg/kg intravenous bolus; for clearance: read-out: CL(IV bolus); for Vd: read-out: Vdss (IV bolus); for AUC / half-life: 10 mg/kg oral; for half-life: read-out: T½ (oral) (converted)
Protocol: The compounds were formulated in 10% tween 80/dextrose for intravenous bolus administration while oral administrations were performed using the compounds formulated in 0.5% methylcellulose. A single administration at the dose of 10 mg/kg was given and three male animals for each route were used. […] Plasma samples were prepared by plasma proteins precipitation adding 200 µl of methanol to 10 µl of plasma in a 96 well plate. […] The supernatant was considered as final extract and injected onto the LC-MS-MS system (HPLC system: Hewlett Packard 1100 series using Atlantis HILIC Silica 50*2.1 mm 5.0 μM analytical column; MS instrument: Perkin Elmer SCIEX API 2000 and ionization performed with Turbo Ion Spray in positive ion mode). Lower limit of quantification is 5.0 ng/ml, upper limit of quantification is 10000 ng/ml. […] Non-compartmental method (linear trapezoidal rule and linear regression analysis of natural log-transformed plasma concentrations vs. time data) was used. After intravenous dosing, C0 was set equal to C0.083, Absolute bioavailability (F) was calculated from the ratio of average oral to IV (intravenous) dose-normalized plasma AUC (area under curve) values.

[4] = system: Capan-1 human pancreatic cancer tumors; settings: for T − C: delay to reach 1 g
From the text: Balb, athymic Nu/Nu male mice, from Harlan (Italy), were maintained in agreement with the European Communities Council Directive no. 86/609/EEC concerning the protection of animals used for experimental or other scientific purposes, in cages with paper filter cover, food and bedding sterilized and acidified water. Fragments of Capan-1 human pancreatic cancer tumors were implanted subcutaneously. Mice bearing a palpable tumor (100-200 mm^3) were selected and randomized into control and treated groups. Each group included seven animals. The treatment started one day after randomization. Compound of formula (I) was administered by oral route as a methocel suspension at the doses of 100 mg/kg daily or twice a day for the indicated times.
Compound (39) was administered by oral route at the dose of 100 mg/kg twice a day for ten consecutive days (days 1 to 10). […] Tumor growth and body weight were measured every 3 days. Tumor growth was assessed by caliper. The two diameters were recorded and the tumor weight was calculated according to the following formula: length (mm)×width^2/2. […] This delay (T−C value) was defined as the difference of time (in days) required for the treatment group (T) and the control group (C) tumors to reach a predetermined size (1 g). Toxicity was evaluated on the basis of body weight reduction and animal survival rate.

[5] = system: ovarian cancer patients with confirmed BRCA-1 mutations; settings: preliminary phase I data; cited from earlier work
[6] = 150 mg/kg, days 1-14 twice a day
[7] = temozolomide alone, oral 50 mg/kg once a day, days 3, 4, 5, 6 and 7
[8] = 100 mg/kg, days 1-10 twice a day
[9] = Compound (39) alone, oral 100 mg/kg twice a day, days 1 to 10
[10] = 100 mg/kg, days 1-20 once a day

Sequence of PARP-1 FL (P09874 whole entry): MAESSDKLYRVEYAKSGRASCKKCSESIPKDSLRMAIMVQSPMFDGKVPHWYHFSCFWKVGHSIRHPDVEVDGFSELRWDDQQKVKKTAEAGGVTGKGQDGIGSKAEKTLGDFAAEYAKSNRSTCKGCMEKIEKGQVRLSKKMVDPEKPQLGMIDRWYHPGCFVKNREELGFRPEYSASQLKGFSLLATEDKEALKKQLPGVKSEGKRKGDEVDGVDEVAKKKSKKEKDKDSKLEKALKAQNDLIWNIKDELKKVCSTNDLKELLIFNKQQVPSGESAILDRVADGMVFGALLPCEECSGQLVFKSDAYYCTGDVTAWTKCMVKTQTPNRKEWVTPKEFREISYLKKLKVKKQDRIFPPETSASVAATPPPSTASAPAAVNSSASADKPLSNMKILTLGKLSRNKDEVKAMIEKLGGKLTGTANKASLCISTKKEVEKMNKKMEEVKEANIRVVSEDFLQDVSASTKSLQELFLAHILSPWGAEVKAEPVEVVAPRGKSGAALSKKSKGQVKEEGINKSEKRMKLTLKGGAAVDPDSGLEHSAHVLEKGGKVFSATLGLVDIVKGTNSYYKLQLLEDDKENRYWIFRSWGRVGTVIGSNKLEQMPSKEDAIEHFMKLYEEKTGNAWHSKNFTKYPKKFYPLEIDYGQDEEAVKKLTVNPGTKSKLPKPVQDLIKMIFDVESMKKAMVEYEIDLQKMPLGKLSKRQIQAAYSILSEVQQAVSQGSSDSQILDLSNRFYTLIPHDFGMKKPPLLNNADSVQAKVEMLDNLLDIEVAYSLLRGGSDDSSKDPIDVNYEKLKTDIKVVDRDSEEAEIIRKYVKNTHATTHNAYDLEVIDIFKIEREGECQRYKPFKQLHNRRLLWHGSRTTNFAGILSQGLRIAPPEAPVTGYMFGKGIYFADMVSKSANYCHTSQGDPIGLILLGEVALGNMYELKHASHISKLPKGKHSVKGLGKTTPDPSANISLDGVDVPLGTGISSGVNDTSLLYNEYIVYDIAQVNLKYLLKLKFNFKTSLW
Sequence of PARP-2 FL (Q9UGN5 whole entry): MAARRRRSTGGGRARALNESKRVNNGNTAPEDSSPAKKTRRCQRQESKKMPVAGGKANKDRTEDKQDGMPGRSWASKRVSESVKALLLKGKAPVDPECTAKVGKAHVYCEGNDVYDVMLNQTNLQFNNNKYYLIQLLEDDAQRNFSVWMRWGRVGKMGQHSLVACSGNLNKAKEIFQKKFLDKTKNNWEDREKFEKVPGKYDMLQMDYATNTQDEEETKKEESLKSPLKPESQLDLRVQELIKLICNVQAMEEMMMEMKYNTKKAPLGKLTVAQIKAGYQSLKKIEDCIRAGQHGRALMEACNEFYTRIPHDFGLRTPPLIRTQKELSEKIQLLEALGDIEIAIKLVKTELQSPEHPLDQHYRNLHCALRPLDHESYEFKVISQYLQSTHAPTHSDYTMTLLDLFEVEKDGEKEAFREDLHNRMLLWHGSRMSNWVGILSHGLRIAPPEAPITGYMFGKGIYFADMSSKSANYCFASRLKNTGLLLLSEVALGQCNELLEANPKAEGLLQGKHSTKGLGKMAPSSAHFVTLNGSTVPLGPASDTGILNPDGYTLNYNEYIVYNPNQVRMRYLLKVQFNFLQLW

Row | IC50 [1] | Kd (PARP-2 FL) | DC50 (PARP-2 FL) | DC50 (PARP-3 FL) | Kd (PARP-1 FL) | DC50 (PARP-1 FL) | Structure (SMILES) | F on AUC [3] | clearance [3] | Vd [3] | AUC [3] | half-life [3] | also measured
1 | 0.13 µM | 0.4 µM | 0.7 µM | 1.23 µM | < 0.03 µM | < 0.25 µM | O=c1[nH]c(-c2cccc(Cl)c2)c(OCCCN2CCCCC2)c2ccccc12 [Compound 44, 3-(3-Chloro-phenyl)-4-(3-piperidin-1-yl-propoxy)-2H-isoquinolin-1-one] |  |  |  |  |  | 
2 | 0.09 µM |  | 0.97 µM | 0.2 µM | < 0.01 µM | < 0.25 µM | Cc1cccc2c(=O)[nH]c(-c3ccccc3)c(OCCN)c12 [Compound 49, 4-(2-Amino-ethoxy)-5-methyl-3-phenyl-2H-isoquinolin-1-one hydrochloride] |  |  |  |  |  | 
3 | 0.11 µM | 0.51 µM | 1.16 µM | 0.33 µM | < 0.01 µM | < 0.25 µM | Cl.NCCOc1c(-c2cccc(Cl)c2)[nH]c(=O)c2ccccc12 [Compound 48, 4-(2-Amino-ethoxy)-3-(3-chloro-phenyl)-2H-isoquinolin-1-one hydrochloride] | 27% | 59.9 mL/min/kg | 4.1 L/kg | 2.39 µM·h | 1.11 h | 
4 | 0.4 µM |  | > 10 µM | 1.11 µM |  | < 0.25 µM | O=c1[nH]c(-c2ccccc2)c(OCCCNCc2ccccc2)c2ccc(F)cc12 [Compound 87, 4-[3-(benzylamino)propoxy]-7-fluoro-3-phenylisoquinolin-1(2H)-one] |  |  |  |  |  | 
5 | 0.1 µM |  | 0.51 µM | 0.22 µM | < 0.03 µM | < 0.25 µM | NCCOc1c(-c2cccc(O)c2)[nH]c(=O)c2cc(F)ccc12 [Compound 47, 4-(2-Amino-ethoxy)-7-fluoro-3-(3-hydroxy-phenyl)-2H-isoquinolin-1-one] |  |  |  |  |  | 
6 | 3.44 µM |  | 5.85 µM | > 10 µM |  | 1.59 µM | CCN(CC)CCOc1c(-c2ccccc2)[nH]c(=O)c2cc(F)ccc12 [Compound 88, 4-[2-(diethylamino)ethoxy]-7-fluoro-3-phenylisoquinolin-1(2H)-one trifluoroacetate] |  |  |  |  |  | 
7 | 0.57 µM |  | 3.86 µM | 1.11 µM |  | < 0.25 µM | CN(C)CCOc1c(-c2ccccc2)[nH]c(=O)c2cc(F)ccc12 [Compound 84, 4-[2-(dimethylamino)ethoxy]-7-fluoro-3-phenylisoquinolin-1(2H)-one] |  |  |  |  |  | 
8 | 0.28 µM | 0.12 µM | 0.42 µM | 0.25 µM | < 0.03 µM | < 0.25 µM | O=c1[nH]c(-c2cccc(O)c2)c(OCCCN2CCCCC2)c2ccc(F)cc12 [Compound 45, 7-Fluoro-3-(3-hydroxy-phenyl)-4-(3-piperidin-1-yl-propoxy)-2H-isoquinolin-1-one hydrochloride] |  |  |  |  |  | 
9 | 0.08 µM |  | 3.3 µM | 0.33 µM | < 0.03 µM | < 0.25 µM | NCCOc1c(-c2cccc(Cl)c2)[nH]c(=O)c2cc(F)ccc12 [Compound 50, 4-(2-Amino-ethoxy)-3-(3-chloro-phenyl)-7-fluoro-2H-isoquinolin-1-one hydrochloride] |  |  |  |  |  | 
10 | 0.54 µM |  | 4.72 µM | 0.33 µM |  | < 0.25 µM | NCCCOc1c(-c2ccccc2)[nH]c(=O)c2cc(F)ccc12 [Compound 86, 4-(3-aminopropoxy)-7-fluoro-3-phenylisoquinolin-1(2H)-one hydrochloride] |  |  |  |  |  | 

More lines, now with the values behind:

Row | Structure (SMILES) | IC50 [1] | Kd (PARP-2 FL) | DC50 (PARP-2 FL) | DC50 (PARP-3 FL) | Kd (PARP-1 FL) | DC50 (PARP-1 FL) | F on AUC [3] | clearance [3] | Vd [3] | AUC [3] | half-life [3] | also measured
11 | COc1cccc(-c2[nH]c(=O)c3ccccc3c2OCCN)c1.Cl [Compound 11, 4-(2-Amino-ethoxy)-3-(3-methoxy-phenyl)-2H-isoquinolin-1-one hydrochloride] | 0.18 µM |  |  | 0.35 µM | < 0.03 µM | < 0.25 µM | 64% | 120 mL/min/kg | 2.6 L/kg | 2.94 µM·h | 1.01 h | Max TGI (%) [2, 6]: 31%; Toxicity [2, 6]: 0/7
12 | Cn1nnc2c(C(N)=O)ncn2c1=O [temozolomide, reference compound] |  |  |  |  |  |  |  |  |  |  |  | Toxicity [4, 7]: 0/7; T − C [4, 7]: 3 days
13 | O=c1[nH]c(-c2ccc(O)cc2)c(OCCCN2CCCCC2)c2ccccc12 [Compound 27, 3-(4-Hydroxy-phenyl)-4-(3-piperidin-1-yl-propoxy)-2H-isoquinolin-1-one] | 0.25 µM | 0.33 µM | 0.77 µM | 0.55 µM | < 0.03 µM | < 0.25 µM |  |  |  |  |  | 
14 | Cl.NCCOc1c(-c2ccccc2)[nH]c(=O)c2cc(F)ccc12 [Compound 39, 4-(2-Amino-ethoxy)-7-fluoro-3-phenyl-2H-isoquinolin-1-one hydrochloride] | 0.06 µM | 4.38 µM | 3.32 µM | 0.28 µM | < 0.01 µM | < 0.25 µM | 72% | 37.9 mL/min/kg | 1.7 L/kg | 11 µM·h | 1.06 h | Max TGI (%) [2, 8]: 48%; Toxicity [2, 8]: 0/7; Toxicity [4, 9]: 0/7; T − C [4, 9]: 3 days; Interaction of the combination (T−C versus addition of single treatments) ([4]; compound (39) combined with temozolomide): strong synergism
15 | O=C(c1cc(Cc2n[nH]c(=O)c3ccccc23)ccc1F)N1CCN(C(=O)C2CC2)CC1 [AZD2281] |  |  |  |  |  |  |  |  |  |  |  | Partial responses [5]: 4 out of 10
16 | O=c1[nH]c(-c2cccc(O)c2)c(OCCCN2CCCCC2)c2ccccc12 [Compound 33, 3-(3-Hydroxy-phenyl)-4-(3-piperidin-1-yl-propoxy)-2H-isoquinolin-1-one] | 0.41 µM | 0.25 µM | 0.58 µM | 0.34 µM | < 0.03 µM | < 0.25 µM | 24% | 176 mL/min/kg | 2.9 L/kg | 0.64 µM·h | 1.11 h | 
17 | COc1ccc(-c2[nH]c(=O)c3ccccc3c2OCCN)cc1.Cl [Compound 24, 4-(2-Amino-ethoxy)-3-(4-methoxy-phenyl)-2H-isoquinolin-1-one hydrochloride] | 0.06 µM |  |  | 0.37 µM | < 0.03 µM | 0.32 µM | 50% | 41.1 mL/min/kg | 3 L/kg | 6.97 µM·h | 2.71 h | 
18 | NCCOc1c(-c2ccc(O)cc2)[nH]c(=O)c2cc(F)ccc12 [Compound 28, 4-(2-Amino-ethoxy)-7-fluoro-3-(4-hydroxy-phenyl)-2H-isoquinolin-1-one hydrobromide] | 0.4 µM |  | 1.1 µM | 0.47 µM | < 0.03 µM | < 0.25 µM |  |  |  |  |  | 
19 | NCCOc1c(-c2ccc(O)cc2)[nH]c(=O)c2ccccc12 [Compound 26, 4-(2-Amino-ethoxy)-3-(4-hydroxy-phenyl)-2H-isoquinolin-1-one] | 0.23 µM | 0.33 µM | 0.68 µM | 0.35 µM | < 0.01 µM | < 0.25 µM |  |  |  |  |  | 
20 | COc1ccc(-c2[nH]c(=O)c3cc(F)ccc3c2OCCN)cc1.Cl [Compound 25, 4-(2-Amino-ethoxy)-7-fluoro-3-(4-methoxy-phenyl)-2H-isoquinolin-1-one hydrochloride] | 0.06 µM | 0.61 µM | 2.29 µM | 0.21 µM | < 0.01 µM | < 0.25 µM | 71% | 42.2 mL/min/kg | 2.3 L/kg | 8.32 µM·h | 2.17 h | Max TGI (%) [2, 10]: 18%; Toxicity [2, 10]: 0/7

— patent publication US8993594B2, “Isoquinolin-1(2H)-one derivatives as PARP-1 inhibitors” (Nerviano Medical Sciences S.R.L., priority 2009, dated 2015)
